Data published in patent US12036241B2, “Compositions and methods for immune cell modulation in adoptive immunotherapies” (Fate Therapeutics, Inc., priority 2017, dated 2024).
Entries after “also recorded” stand apart in the source; their conditions may differ.

Columns and labels:
CD8+ T cells = test: Cytokine production (IFNγ, IL-2, TNFα) after PMA/ionomycin, intracellular staining; assay type: cell-based, human; conditions: PMA/ionomycin 4 h; for increase of IFNγ+ only subpopulation / increase of IL-2 only subpopulation: FIG. 3D
Procedure: The ability of T cells to respond to a variety of stimuli can be important to their function. The capacity of T cells to produce multiple cytokines in response to non-specific stimulation is a measure of their ‘multifunctionality’. To assess whether compounds affect this ‘multifunctional’ response, the ability of modulated T cells to produce interferon-γ (IFNγ), IL-2 and/or TNFα post-stimulation was determined. After CD8^+ T cell treatment with each of the selected compounds, cells were stimulated with a mixture of PMA/ionomycin for four hours. Following stimulation, cytokine production was measured using intracellular cytokine staining with antibodies recognizing these cytokines conjugated to different fluorophores. Fluorescence was measured using flow cytometry. Cell were defined as multifunctional if they produced two or more cytokines. The proportion of T cell subsets that produce specific single, double or triple cytokines was examined and compared to cells without modulation using a selected compound.
The ability of T cells to respond to a variety of stimuli is important for their function. The capacity of T cells to produce multiple cytokines in response to non-specific stimulation is a measure of their “multifunctionality”. To assess whether selected compounds affect this “multifunctional” response in view of their phenotype skewing effect on the treated cells, the ability of treated cells to produce interferon-γ (IFNγ), IL-2 and TNFα post-stimulation was determined. After treatment of CD8+ T cells with a compound from Table 1, cells were stimulated with a mixture of PMA/ionomycin for four hours. Following stimulation, cytokine production was measured by intracellular cytokine staining with fluorescence-emitting antibodies recognizing these cytokines conjugated to different fluorophores. Fluorescence was measured using flow cytometry. Cells were defined as multifunctional if they produced at least two of the three cytokines.

[1] = tested on: T cells from healthy donors; test: Phenotypic profiling of T cells: CCR7, CD62L, CD27 surface markers by flow cytometry; assay type: cell-based, human; conditions: FIG. 1A; for Tcm phenotype / effect on improving Tcm percentage: relative to vehicle
Source text: (§1) Fresh leukopaks (AllCells, Alameda, Calif.; Key Biologics, Memphis, Tenn.) were obtained from healthy donors, from which T cells were negatively selected using, for example, the EasySep Human T Cell Enrichment Kit (Stem Cell Technologies, Vancouver, Canada). The freshly isolated T cells were aliquoted and cryopreserved. On the day the assays were initiated, T cells were thawed and washed into X-Vivo 15 with supplements including IL-2 and pen/strep. Cells were dispensed into flat-bottom 384-well plates at 5×10^5 cells/ml with anti-CD3/Anti-CD28 beads. Individual compounds were added at a final concentration over the range of 10 μM to 10 nM to each well from column 3 to column 22 of each plate. Positive and negative controls were added to additional wells. Cells were incubated for about 6 days at 37 degrees with 5% CO2.
(§2) These studies were performed with T cells from healthy donors. Six days post-initiation of culture in the presence of anti-CD3/CD28 beads and compound addition, cells were harvested and stained with a fixable viability marker and fluorophore-conjugated antibodies: CD3, CD4, CD8, CD62L, CCR7, CD27, and Tim3 (BD Biosciences, San Jose, Calif.; and BioLegend, San Diego, Calif.). Fluorescent absolute counting beads (Spherotech, Lake Forest, IL) were added just prior to acquisition. Data acquisition was performed on a BD Fortessa™ X-20 (BD Biosciences) and data were analyzed using Treestar™ software (FlowJo, Ashland, Oreg.) and Spotfire (Tibco, Boston, Mass.). The expression of surface markers including CD62L, CCR7 and CD27 was used to identify naïve, stem cell memory, or central memory T cells. After the treatment with each of the compounds, the surface marker expression profile of the treated cells was evaluated along with characterization of cell proliferation and viability. Compounds were scored on expression of these individual Tcm markers as well as CD62L/CCR7 double positive cells. Gene expression scores were also obtained based on a panel of selected 12 genes (Table 2) that are maximally differentially expressed in CD8 Tcm cells relative to Tem.
The selected groups of compounds were assessed for their ability to skew T cell phenotype. […] Tcm is characterized herein by expression of both CCR7 and CD62L. The expression of either CD62L or CCR7 on T cells, as indicative of the desired T cell subsets, indicates a favorable functional characteristic for CAR-T cell therapy, and potentially other adoptive T cell therapies. The phenotypic studies use flow cytometry to measure the expression levels of these key surface proteins. Compounds were scored on expression of these individual Tcm markers as well as CD62L/CCR7 double positive cells (FIG. 1A). The scores in FIG. 1A were generated using the values obtained from four donors and the formula: Score=Normalized StDev over Vehicle×Significance (−log 10(p-value))+1 Scores for other graphs in this figure used the same formula.

[2] = tested on: T cells from healthy donors; test: T cell viability and expansion after compound treatment; assay type: cell-based, human; conditions: FIGS. 2A, 2B
Source text: as §1, §2
The phenotypic studies of the surface markers also included characterization of cell viability (FIG. 2A) and cell expansion (FIG. 2B). Scores for the graphs in FIGS. 2A-B were obtained using the formula: (Test value−minimum value)/(maximum value—minimum value)×10

[3] = tested on: irradiated K562 cells expressing CD19 and mKate2; test: Target cell killing by compound-treated CAR-T cells (IncuCyte); assay type: cell-based, human; conditions: earlier time points, 24 to 65 hours; FIG. 4A
Procedure: An in vitro serial killing/re-stimulation assay, where the T cells treated by each compound were evaluated for various functions, including expansion and ability to kill tumor cells expressing the target antigen in vitro over multiple rounds of exposure to and withdrawal from antigen, was used as a model system. Such assays were carried out on cells treated with or without compounds, to assess the impact of individual compounds on cell function after repeated encounter with antigen, and cell expansion or persistence in such contexts.
An in vitro serial killing/re-stimulation assay, where CAR-T cells are tested for the ability to “clear” tumor cells in vitro over multiple rounds, can be used as a model to assess CAR-T expansion in the presence of tumor cells that express the antigen recognized by the CAR.
CD8 T cells were transduced with CARs and the cells were then cryopreserved. After thawing, the CAR-T cells were co-cultured with irradiated K562 tumor cells that express transgenic mKate2, a far-red fluorescent protein, and CD19, the antigen recognized by the CAR. […]
From this, the Area Under the Curve (AUC) for CAR-T cells treated with each compound can be calculated. […] To determine the effect of compound treatment on the killing ability of CAR-T cells, the AUC relative to target cells alone was determined.

CAR-T cells = test: Serial restimulation of CAR-T cells produced with vehicle, PI3K inhibitor or PDK1 inhibitor; assay type: cell-based, human; conditions: after antigen stimulation and withdrawal, and with coated beads; FIG. 10 legend
Procedure: At the end of the manufacturing process, the cells were frozen prior to subsequent functional analysis.
The ability of CAR-T cells produced in the presence of vehicle, PI3K inhibitor, or PDK1 inhibitor to expand through multiple rounds of antigen stimulation was measured in a serial restimulation assay, wherein cryopreserved CAR-T cells were thawed and co-cultured in the presence of antigen-bearing, irradiated target cells. Every 3 to 4 days the CAR-T and target cell ratios were readjusted to approximately 1:1. […] As an alternative to using antigen-bearing, irradiated target cells for CAR-T cell stimulation, cryopreserved CAR-T cells from three independent donors produced in the presence of vehicle, PI3Ki or PDKli were thawed in T cell growth media and subsequently assessed for expansion and survival, as measured by AUC (area under the curve) of the expansion over 14 days of stimulation with anti-CAR antibodies conjugated to beads.

Nalm-6 = test: Survival in Nalm6/NSG tumor model, suboptimal CAR-T dose; assay type: in vivo, NSG mice; conditions: 3×10^5 CD19 CAR-T cells; FIG. 12A; listed as PI3K inhibitor
Procedure: (§3) Next, an in vivo assay was conducted to further characterize CAR-T cells produced in the presence of a PI3K inhibitor or a PDK1 inhibitor for tumor clearance. NSG mice were injected with a human leukemia line, Nalm-6. Four days later, mice were treated with a suboptimal dose (3×10^5) of freshly thawed CD19 CAR-T cells generated in the presence of vehicle (“DMSO” n=8), PI3K inhibitor (n=8), or PDK1 inhibitor (n=8). Some tumor bearing mice (n=2) also received expanded T cells that were not transduced with CAR (untransduced or “UNTD”). Negative control mice (n=2, “Unmanip”) received neither tumor nor CAR T cells. […] Seven days later, a suboptimal dose (2.5×10^5) of CD19 CAR-T cells produced in the presence of DMSO, PDK1 inhibitor, or PI3K inhibitor were transferred and the survival of the tumor bearing mice was monitored.

Raji = test: Survival in Raji/NSG tumor model, suboptimal CAR-T dose; assay type: in vivo, NSG mice; conditions: 2.5×10^5 CD19 CAR-T cells; FIG. 12B; listed as PI3K inhibitor
Procedure: as §3

Cc1sc2c(c1C)C(c1ccc(Cl)cc1)=N[C@@H](CC(=O)Nc1ccc(O)cc1)c1nnc(C)n1-2 [Compound 1, OTX015]
increase of total multifunctional subpopulation (at least 2 cytokines) (CD8+ T cells; CD8+ T cells, vs vehicle): ~16 fold | increase of cells producing all three cytokines (CD8+ T cells; IFNγ, IL-2, TNFα): ~13 fold | increase of IFNγ+ only subpopulation (CD8+ T cells): about 33 fold

Cc1ccc(-c2ncc(Cl)cc2-c2ccc(S(C)(=O)=O)cc2)cn1 [Compound 7, Etoricoxib]
Tcm phenotype / effect on improving Tcm percentage [1]: minimal effect | cell viability and/or expansion relative to vehicle treatment [2]: enhance cell viability and/or expansion

O=C1NCCN1CCN1CCC(c2cn(-c3ccc(F)cc3)c3ccc(Cl)cc23)CC1 [Compound 8, Sertindole]
Tcm phenotype / effect on improving Tcm percentage [1]: minimal effect | cell viability and/or expansion relative to vehicle treatment [2]: enhance cell viability and/or expansion

CC1(C)O[C@@H]2C[C@H]3[C@@H]4C[C@H](F)C5=CC(=O)C=C[C@]5(C)[C@H]4[C@@H](O)C[C@]3(C)[C@]2(C(=O)CO)O1 [Compound 10, Flunisolide]
Tcm phenotype / effect on improving Tcm percentage [1]: minimal effect | cell viability and/or expansion relative to vehicle treatment [2]: enhance cell viability and/or expansion

CC(=O)OCC(=O)[C@@]1(O)[C@H](C)C[C@H]2[C@@H]3CCC4=CC(=O)C=C[C@]4(C)[C@@]3(F)[C@@H](O)C[C@@]21C [Compound 11, Dexamethasone Acetate]
Tcm phenotype / effect on improving Tcm percentage [1]: minimal effect | cell viability and/or expansion relative to vehicle treatment [2]: enhance cell viability and/or expansion

CC(=O)OCC(=O)[C@@]12OC3(CCCC3)O[C@@H]1C[C@H]1[C@@H]3CCC4=CC(=O)C=C[C@]4(C)[C@@]3(F)[C@@H](O)C[C@@]12C [Compound 12, Amcinonide]
Tcm phenotype / effect on improving Tcm percentage [1]: minimal effect | cell viability and/or expansion relative to vehicle treatment [2]: enhance cell viability and/or expansion

C1=C/COCc2cc(ccc2OCCN2CCCC2)Nc2nccc(n2)-c2cccc(c2)COC/1 [Compound 17, Pacritinib]
increase of IL-2 only subpopulation (CD8+ T cells): about 11 fold

C[C@@H]1CCN(C(=O)CC#N)C[C@@H]1N(C)c1ncnc2[nH]ccc12 [Compound 18, Tofacitinib]
increase of IL-2 only subpopulation (CD8+ T cells): ~4 fold

Cc1ccc(NC(=O)c2cccc(C(C)(C)C#N)c2)cc1Nc1ccc2ncn(C)c(=O)c2c1 [Compound 23, AZ628]
increase of IFNγ+ only subpopulation (CD8+ T cells): ~116 fold | increase of IL-2 only subpopulation (CD8+ T cells): ~18 fold | kinetics of target cell killing compared to vehicle [3]: slower than for vehicle

CC(C)(C)c1nc(-c2cccc(NS(=O)(=O)c3c(F)cccc3F)c2F)c(-c2ccnc(N)n2)s1 [Compound 24, Dabrafenib]
increase of the percentage of CCR7, CD62L double positive cells (Tcm) relative to vehicle ([1]; T cells, about 6 days with anti-CD3/CD28 beads, vs DMSO): about 10 fold

Oc1cccc(-c2nc(N3CCOCC3)c3oc4ncccc4c3n2)c1 [PI103]
CAR-T cell expansion (CAR-T cells): improves CAR-T cell expansion | survival of tumor bearing mice compared to DMSO generated CAR-T cells (Nalm-6): prolonged survival; also recorded: improves survival | survival of tumor bearing mice compared to DMSO treated CAR-T cells (Raji): substantially improved; also recorded: improves survival
